Literature values as cited in patent publication US7459223B2, “Electrochemical methods for generation of a biological proton motive force” (Board of Trustees of Michigan State University, priority 1998, dated 2008).
Like-named read-outs stand apart in the source and are kept apart here.

Details: cited from earlier work

## NC(=O)c1ccc[n+]([C@@H]2O[C@H](COP(=O)(O)OP(=O)(O)OC[C@H]3O[C@@H](n4cnc5c(N)ncnc54)[C@H](O)[C@@H]3O)[C@@H](O)[C@H]2O)c1 [NAD^+]
Table 1, redox mediators
  E0′ (redox potential): −0.32 V

## Menaquinone
Table 1, redox mediators
  E0′ (redox potential): −0.074 V
  E0′ (redox potential): −0.073 volt
